Test [1] concerns P. aeruginosa PAO1 biofilm. The test can be described thus: crystal violet static biofilm inhibition assay. To be noted: for IC50: Pseudomonas aeruginosa, PAO1; for anti-biofilm (biofilm inhibitory) activity in words: initial screen at 500 μM, 12 and 24 h; for inhibition of biofilm growth: at 100 micro M, 24 h. It is filed as cell-based, Pseudomonas aeruginosa. The method, then: Stilbenes 1, 2, and 4a-b were tested for inhibition of biofilm formation in a wild-type P. aeruginosa strain (PAO1) at 500 μM using standard static biofilm growth assays.
Biofilms were grown in a modified M9 minimal media in 96-well microtiter plates, and crystal violet staining of the surface-associated biomass was used to quantify biofilm growth at 12 and 24 h (see The Examples).
A modified version of the widely used crystal violet (CV) microtiter plate biofilm assay, first described by Christensen et al. and later popularized by O'Toole et al., [57] was used in this study and is described in detail below.
Compounds to be evaluated for biofilm modulatory activity were added to the assay microtiter plates by means of a “solvent evaporation” delivery. This delivery method involves preparation of compound stock solutions, addition of stocks to microtiter plates at appropriate volumes to obtain target molar quantities per well, evaporation of the solvent, and re-solubilization of the compound in the final assay medium upon inoculum addition. This delivery method was adopted to avoid the biofilm inhibitory effects observed with an “organic solvent-to-solution” delivery method (e.g., DMSO-to-media; data not shown), which is more commonly done in small molecule screens. EtOH was chosen as the solvent for solvent evaporation delivery in this study based on the chemical resistance limitations of polystyrene microtiter plates. Prior to each experiment, EtOH stock solutions of compounds being evaluated were prepared, diluted, and added to microtiter plates at varied volumes to obtain a target final concentration per well upon inoculum addition. Plates were incubated at 37° C. to evaporate EtOH and sterilized in a Baker SterilGARD III Advance Biological Safety Cabinet by UV-C germicidal irradiation for 30 min (lids removed). EtOH only was added to wells designated as “no compound” positive controls (Pos. Con.) and “no bacteria” negative controls (note, controls lacking bacteria yielded no significant staining in the CV assay (data not shown)). The outer wells were never used for test samples as evaporation and significant deviations in growth were observed; thus, outer wells were filled with sterile 18 MΩ H2O to minimize these effects.
Bacterial samples for biofilm assessment were prepared by first streaking a freezer stock of P. aeruginosa PAO1 on an LB/agar plate and incubating at 37° C. for ˜16 h. Single colonies were selected and used to inoculate LB medium (10 mL) in a 25 mL Erlenmeyer flask. The culture was grown on an incubator-shaker (200 rpm) at 37° C. for ˜16 h to an OD600 of ˜1.0. Overnight cultures were gently decanted into falcon tubes to minimize transfer of biofilm produced during overnight growth. An inoculating culture was prepared by centrifuging an aliquot of overnight culture at 3,000 rpm for 10 min, removal of the supernatant, and then re-suspending the pellet in 95:5 M9+:LB at 10-fold the initial volume (effecting a 1-in-10 dilution; OD600 ˜0.1-0.2). Using a multi-channel pipette, this culture was added to test microtiter plates in 200 μL aliquots. The well contents were mixed using a 10 μL multi-channel pipette in a swirling motion; insoluble compound samples were noted and later excluded from the data set as needed.
Plates were covered with the provided lid and incubated statically at 37° C. for 12-24 h. Maximal biofilm formation is obtained at 24 h, after which the amount of biofilm declines unless fresh nutrients are provided. After incubation, the OD600 was measured, and the bacterial suspension was removed by inverting and shaking the plate over a waste pan and then taping on a paper towel (process termed “dumping”). Non-biofilm associated biomaterial was removed by adding 225 μL PBS and dumping (process termed “washing”) and then repeating this washing process. Biofilm was fixed to the microtiter plates by uncovering the plate and thermally dehydrating at 37° C. […]

Test [2] concerns Gram-positive bacteria. The note with it: WO 2010/144686 (7); ref. 34 (18); cited from earlier work.
Setting [3] is: 12 h incubation, CV assay, read-out: 12 h biofilm IC50.
[4] abbreviates: 24 h incubation, CV assay, read-out: 24 h biofilm IC50.
[5] abbreviates: Table 1, crystal violet, read-out: IC50, P. aeruginosa PAO1 biofilm inhibition.

Each structure is given as a SMILES string. Where two headings read alike, the source gives them in different places.

As for `COc1ccc2[nH]c(N)nc2c1` [Compound 22, 5-Methoxy-2-aminobenzimidazole], the IC50 in test [1] (setting [3]) was 73.8 µM; in test [1] (setting [4]), 80.1 µM; in test [1] (setting [5]), 80 µM.
The corresponding values for `Nc1nc2cc(F)ccc2[nH]1` [Compound 13, 5-Fluoro-2-aminobenzimidazole] are 30.2 µM, 35.2 µM and 35 µM.
With `Nc1ncc[nH]1` [Compound 8, 2-aminoimidazole, reference compound], the “anti-biofilm (biofilm inhibitory) activity in words” value in test [1] is “neither 2-AI (8) nor guanidine (9) was found to display significant inhibitory activity”.
For the compound `Nc1nc2cc(Br)ccc2[nH]1` [Compound 11, 5-Bromo-2-aminobenzimidazole], the half-inhibitory concentration (IC50) in test [1] (setting [3]) came to 22 µM; in test [1] (setting [4]), 22.2 µM; in test [1] (setting [5]), 22 µM.
In the case of `Nc1nc2ccc(/C=C/c3ccccc3)cc2[nH]1` [Compound 1, 6-Styryl-2-aminobenzimidazole], the half-inhibitory concentration (IC50) came to 13 µM in test [1] (setting [3]) and 8.9 µM in test [1] (setting [4]). In addition, the “inhibition of biofilm growth” value in test [1] amounted to 56%.
On to `C(=C\c1ccc2cc[nH]c2c1)/c1ccccc1` [Compound 4b, 6-Styryl-1H-indole], for which the “anti-biofilm (biofilm inhibitory) activity in words” value in test [1] is reported as “Neither indole, derivative (4a-b), however, showed appreciable anti-biofilm activity”.
Same read-out and setting: the value for `C(=Cc1ccccc1)c1ccccc1` [Compound 6, Stilbene, reference compound] was “complete loss of inhibitory activity”.
`Nc1nc2cc3ccccc3cc2[nH]1` [Compound 24, 2-Amino-1H-naphtho[2,3-d]imidazole]: the 50% inhibitory concentration (IC50) in test [1] (setting [3]) is 54.5 µM; in test [1] (setting [4]), 48.3 µM; in test [1] (setting [5]), 48 µM.
In the same order, the values of `Cc1cccc2[nH]c(N)nc12` [Compound 19, 4-Methyl-2-aminobenzimidazole] are 37.6 µM, 38.7 µM and 39 µM.
On to `Nc1nc2cc([N+](=O)[O-])ccc2[nH]1` [Compound 18, 5-Nitro-2-aminobenzimidazole], for which the 50% inhibitory concentration (IC50) in test [1] (setting [3]) stood at 49.6 µM; in test [1] (setting [4]), 63.1 µM; in test [1] (setting [5]), 63 µM. Besides, the “biofilm inhibition in Gram-positive bacteria as reported” value in test [2] was “reported to be a biofilm inhibitor in Gram-positive bacteria”.
For the compound `C(=C\c1ccc2[nH]ccc2c1)/c1ccccc1` [Compound 4a, 5-Styryl-1H-indole], in test [1], the “anti-biofilm (biofilm inhibitory) activity in words” value is “Neither indole, derivative (4a-b), however, showed appreciable anti-biofilm activity”.
On to `Nc1nc2cc(I)ccc2[nH]1` [Compound 10, 5-Iodo-2-aminobenzimidazole], for which the half-maximal inhibitory concentration (IC50) is 26.3 µM in test [1] (setting [3]), 20.3 µM in test [1] (setting [4]) and 20 µM in test [1] (setting [5]).
Consider `N=C(N)N` [Compound 9, Guanidine, reference compound], for which the “anti-biofilm (biofilm inhibitory) activity in words” value in test [1] is listed as “neither 2-AI (8) nor guanidine (9) was found to display significant inhibitory activity”.
The same measure, in the same setting: the value for `Nc1nc2cc(C(=O)O)ccc2[nH]1` [Compound 16, 5-Carboxylic acid-2-aminobenzimidazole] was “total loss”.
For `Cc1ccc2[nH]c(N)nc2c1` [Compound 20, 5-Methyl-2-aminobenzimidazole], the concentration for half-maximal inhibition (IC50) in test [1] (setting [3]) worked out at 27.3 µM; in test [1] (setting [4]), 25.4 µM; in test [1] (setting [5]), 25 µM.
In the same order, the values of `Nc1nc2cc(Cl)ccc2[nH]1` [Compound 12, 5-Chloro-2-aminobenzimidazole] are 25.7 µM, 27.5 µM and 28 µM.
With `COc1ccc2[nH]c(=S)[nH]c2c1` [Compound 5-OMe-2-TBI, reference compound], the “anti-biofilm (biofilm inhibitory) activity in words” value in test [1] is listed as “significantly less active than 2-ABI derivatives”.
As to `N#Cc1ccc2[nH]c(N)nc2c1` [Compound 17, 5-Cyano-2-aminobenzimidazole], the IC50 in test [1] (setting [3]) stood at 199 µM; in test [1] (setting [4]), 175 µM; in test [1] (setting [5]), 180 µM.
Consider `C(=C\c1ccc2nc[nH]c2c1)/c1ccccc1` [Compound 5, 6-Styryl-1H-benzimidazole], for which, in test [1], the “anti-biofilm (biofilm inhibitory) activity in words” value was “complete loss of inhibitory activity”.
`Nc1nc(-c2ccc(/C=C/c3ccccc3)cc2)c[nH]1` [Compound 2, 4-(E)-Stilbene-2-aminoimidazole]: the figures for the IC50 in test [1] (setting [3]) and in test [1] (setting [4]) were 3.8 µM and 18 µM, respectively. Further, the “inhibition of biofilm growth” value in test [1] came out at 48%.
As for `COC(=O)c1ccc2[nH]c(N)nc2c1` [Compound 15, 5-Carboxylic acid methyl ester-2-aminobenzimidazole], the values for the IC50 in test [1] (setting [3]), in test [1] (setting [4]) and in test [1] (setting [5]) were 186 µM, 139 µM and 140 µM, respectively.
Consider `S=c1[nH]c2ccccc2[nH]1` [Compound 2-TBI, 2-thiobenzamidazole, reference compound], for which, in test [1], the “anti-biofilm (biofilm inhibitory) activity in words” value is recorded as “significantly less active than 2-ABI derivatives”.

Source of the values: US10292390B2, “Inhibition and dispersion of bacterial biofilms with 2-aminobenzimidazole derivatives” (WISCONSIN ALUMNI RESEARCH FOUNDATION, priority 2011, dated 2019).
